Holding throughout (assay type): cell-based
For data set [1], the system named is human RPE cells. The experiment in a line: F-actin immunofluorescent staining (phalloidin), aggregate quantification. The settings on record: 6 hours. As for the experimental part:
Human donor RPE cells were seeded on collagen-coated 96-well plates, 24-well plates with or without coverslips, 6-well plates (Corning-Costar Incorporated, Corning, N.Y., USA). Except for the Seahorse assay, on day 6 after plating, cells were washed twice with serum-free and phenol red-free MEM (SF-MEM), treated with HQ at a various concentrations in the presence or absence of RSG (0.4 mM) in SF-MEM for various times at 37° C. RSG co-treatment refers to the condition in which cells were treated with RSG in the presence of HQ. Control refers to the condition in which cells were not treated. RPE cells in triplicate wells of a 24-well plate containing collagen-coated coverslips were treated for 6 hours with HQ (140 μM) in the presence or absence of RSG (0.4 mM) and then fixed in 4% paraformaldehyde for 12 minutes at room temperature (RT). Cells were permeabilized with 0.5% Triton X-100 for 12 minutes and incubated for 1 hour at RT with phalloidin-TRITC in 0.5% bovine serum albumin/0.1% Triton X-100/PBS. The percentage of F-actin aggregates was determined by a masked observer. […] For data analysis, segmented images were converted to eight-bit, binary images and F-actin aggregates were quantified using the particle analyzer function (0-infinity size and 0-1 circularity) in Fiji.

Data set [2] deals with human RPE cells. The experiment in a line: Determination of ROS (CM-H2DCFDA fluorescence). The settings on record: HQ 160 μM vs control. As for the experimental part:
Human donor RPE cells were seeded on collagen-coated 96-well plates, 24-well plates with or without coverslips, 6-well plates (Corning-Costar Incorporated, Corning, N.Y., USA). Except for the Seahorse assay, on day 6 after plating, cells were washed twice with serum-free and phenol red-free MEM (SF-MEM), treated with HQ at a various concentrations in the presence or absence of RSG (0.4 mM) in SF-MEM for various times at 37° C. RSG co-treatment refers to the condition in which cells were treated with RSG in the presence of HQ. Control refers to the condition in which cells were not treated. RPE cells in triplicate wells of a 96-well black plates with clear bottoms were washed with SF-MEM, loaded with 20 μM CM-H2DCFDA in SF-MEM for 30 minutes at 37° C. and then washed twice. Cells were then treated with HQ (160 μM) in the presence or absence of RSG (0.4 mM). Fluorescence was measured at various times with a fluorescence plate reader (490 nm excitation, 522 nm emission).

Data set [3] concerns human RPE cells. Description: Flow cytometry (Annexin V / 7-AAD) cell death and light-microscopy morphology. As for the experimental part: Human donor eyes from a donor were obtained within 24 hrs. after death from the North Carolina Organ Donor and Eye Bank, Inc. (Winston-Salem, N.C., USA) in accordance with the provisions of the Declaration of Helsinki for research involving human tissue. Cells were grown in Eagle's minimal essential medium (MEM; Invitrogen) with 10% fetal bovine serum (FBS; Thermo Scientific) and with 1× penicillin/streptomycin (Thermo Scientific) at 37° C. in a humidified environment containing 5% CO2.
Human donor RPE cells were seeded on collagen-coated 96-well plates, 24-well plates with or without coverslips, 6-well plates (Corning-Costar Incorporated, Corning, N.Y., USA). Except for the Seahorse assay, on day 6 after plating, cells were washed twice with serum-free and phenol red-free MEM (SF-MEM), treated with HQ at a various concentrations in the presence or absence of RSG (0.4 mM) in SF-MEM for various times at 37° C. RSG co-treatment refers to the condition in which cells were treated with RSG in the presence of HQ. Control refers to the condition in which cells were not treated.
RPE cells in triplicate wells of a 6-well plate were treated with HQ (150 μM) in the presence or absence of RSG (0.4 mM) for 12 hours. Cell morphology was recorded by light microscopy, and then cells were detached with 1×TrypLE and centrifuged at 300 g for 5 minutes. Cells were re-suspended with 100 μL 1×Annexin V binding buffer, incubated with 5 μL Annexin V for 10 minutes and then 5 μL 7-AAD was added to the Annexin V mixture and incubated for additional 5 minutes. Cell death was analyzed with flow cytometry.
(In general: In flow cytometry, cells or beads pass a laser one at a time.)

Data set [4] relates to human RPE cells. The settings on record: RSG 0.4 mM co-treatment with HQ 175 μM, 1.5 hours, vs HQ-treated cells. As for the experimental part:
RPE cells were seeded in triplicate wells of collagen-coated XF 24-well plates and grown for 24 hours. RPE cells that had just reached confluence were washed with SF-MEM and treated for 1.5 hours with HQ (175 μM) with or without RSG (0.4 mM). Media were removed and cells were washed with XF base medium containing 1 mM sodium pyruvate, 2 mM glutamine and 8 mM glucose, pH 7.4. The cells were incubated for 1 hour at 37° C. in a C02-free incubator. Oxygen consumption rate (OCR) was measured by Seahorse XFe24 flux analyzer under basal conditions followed by the sequential addition of 1 μM oligomycin, 1 μM tri-fluorocarbonylcyanide phenylhydrazone (FCCP), and 1 μM rotenone and antimycin A. Maximal OCR was the difference in OCR between FCCP-induced respiration and OCR after injection of antimycin A. Mitochondrial spare respiratory capacity was the difference between maximal respiration and basal OCR. Media were removed and the total proteins were extracted for BCA protein assay after OCR measurements. OCRs were normalized to total protein content.

Here are results for two compounds from patent US20210275624A1, “TREATMENTS FOR IMPROVING OR LESSENING IMPAIRMENT OF MITOCHONDRIAL FUNCTION” (priority 2020, published 2021).

Molecules are shown by their SMILES. Square brackets hold non-standard residues; d marks the D form. Peptide text beside a SMILES is read from it. Cya = N[C@@H](CS(=O)(=O)O)C(=O)O

On to `Oc1ccc(O)cc1` [HQ, hydroquinone, reference compound], for which, in data set [1] (HQ 140 μM, vs control), the “number of F-actin aggregates” value is “significantly increased the number of F-actin aggregates”. For the same compound, in data set [2], the ROS production result was “significantly increased”. For the same compound, the cell morphology entry in data set [3] (HQ 150 μM) is “caused cells to shrivel/detach”. The “cell death (necrosis, apoptosis)” value in data set [3] (HQ alone 150 μM, 12 hours) was “induced primarily necrotic cell death and much less apoptotic cell death”.
Take `C[C@@H](O)[C@H](NC(=O)[C@H](CS(=O)(=O)O)NC(=O)CNC(=O)[C@H](CCCNC(=N)N)NC(=O)CN)C(=O)N1CCC[C@H]1C(=O)O` [Risuteganib, Glycyl-L-arginylglycyl-3-sulfo-L-alanyl-L-threonyl-L-proline] (H-GRG[Cya]TP-OH): the F-actin aggregates entry in data set [1] (RSG 0.4 mM co-treatment with HQ 140 μM) is given as “significantly inhibited the production of HQ-induced aggregates”. For the same compound, in data set [4], the ATP production result is recorded as “significantly increased” and the spare respiratory capacity entry is reported as “significantly increased”. The cell morphology entry in data set [3] (RSG 0.4 mM co-treatment with HQ 150 μM) is “improved HQ-induced morphological changes”. In addition, the “HQ-induced necrosis and apoptosis (cell death)” value in data set [3] (RSG 0.4 mM co-treatment with HQ 150 μM, 12 hours) is “significantly protected cells from HQ-induced necrosis and apoptosis”. Further, in data set [3] (RSG alone 0.4 mM, 12 hours, vs control), the “number of live and dead cells” value is given as “little effect”.
